Data taken from patent US7351855B2, “Chemically defined non-polymeric valency platform molecules and conjugates thereof” (La Jolla Pharmaceutical Company, priority 1993, dated 2008).
No end group written: not given here.

Assays:
[1] = test system: cultured T cell from melittin-immunized mice; assay: Murine lymph node proliferation assay ([3H]thymidine uptake); assay type: cell-based, Balb/c mice; conditions: T cells from mice primed with melittin; 10, 1.0 or 0.1 μg/mL; FIG. 8
Procedure: Femal Balb/c mic (6-8 weeks old; Jackson Laboratory, Bar Harbor, Me.) were obtained and housed at the La Jolla Pharmaceutical animal facility according to National Institutes of Health guidelines. Food and water was provided ad libitum. Balb/c mice were immunized in each hind footpad with 50 μg of melittin molecule in Complete Freund's Adjuvant (CFA) (Sigma Chemical Co., St. Louis, Mo.). Popliteal lymph nodes were harvested aseptically seven days later. Lymph nodes were gently dissociated by teasing the cells through a 50 mesh sieve screen. The single cell suspension was washed in RPMI-1640 (Irvine Scientific, Irvine Calif.) containing glutamine, penicillin and streptomycin. 5×10^5 cells in RPMI medium supplemented with 10% fetal bovine serum (FCS) in quadruplicate wells of round bottom 96-well Corning microtitration plates were-cultured with melittin or a melittin peptide at 10, 1.0 or 0.1 μg/mL. Cells in the positive control wells were cultured with murine interleukin 2 (IL-2) at 100 or 50 U/mL, PHA (phytohemagglutinin) at 1 μg/mL. The negative control wells contained lymph node cells in RPM-1640 and 10% FCS. The cells were cultured for 4 days in a 37° C. incubator with 5% CO2. Each well was pulsed with 1 μCi of [^3H]thymidine (ICN Biochemicals, Costa Mesa, Calif.) for an additional 18 hours. Cells were harvested onto a glass fiber filter mat using a semiautomatic cell harvester (Scatron, Sterling, Va.). Incorporation of [^3H]thymidine was determined by liquid scintillation. The results were expressed as average counts per minute.

peptide-specific pfc = assay: pfc assay: melittin peptide-specific IgG pfc in spleens of mice primed and boosted with melittin; assay type: in vivo, C57BL/6 mice; conditions: Table 7
Procedure: Female C57BL/6 mice, ages 5 to 8 weeks were purchased from The Jackson Laboratory, Bar Harbor, Me. Animals were maintained and treated accordingly to National Institutes of Health guidelines.
Mice were primed by an i.p. injection containing 5 μg of melittin precipitated on alum and 2×10^9 B. pertussis (Michigan Department of Public Health, Lansing, Mich.) as an adjuvant. The mice were boosted with 5 μg of melittin, i.p., in PBS.
Sheep Red Blood Cells (SRBC) (Colorado Serum Co., Denver, Colo.) were conjugated with melittin-peptide […] using carbodiimide. Fresh SRBC (less than 2 weeks old) were washed four times with cold saline and one time with mannitol (0.35 M mannitol, 0.01 M NaCl). The SRBC were suspended in mannitol to a concentration of 10% (v/v). 100 μL of mannitol containing 30 μg of melittin peptide #3 were added to 1 mL aliquots of 10% SRBC which were then incubated on ice for 10 minutes. 100 μL of a 100 mg/mL solution of 1-ethyl-3 (3-dimethylaminopropyl)-carbodiimide HCl (EDCI) was then added and incubated on ice for 30 minutes. The SRBC were washed twice with Balanced Salt Solution (BSS) (Irvine Scientific Co, Irvine, Calif.) and resuspended to 10% (v/v). Lyophilized guinea pig complement (GIBCO, New York, N.Y.) was reconstituted with BSS and then diluted 1:3 with BSS. One mL of the diluted guinea pig complement was added to 3 mL of conjugated SRBC. Rabbit anti-mouse IgG was added to give a final dilution of 1:100 of the rabbit antiserum. This concentration was predetermined to inhibit all IgM pfc while enhancing the maximum number of IgG pfc. An equal volume of this complement/anti-mouse IgG/SRBC suspension was mixed with a cell suspension of mouse spleen cells taken from a single mouse. 50 μL of each mixture was transferred to the chambers of a Cunningham slide (three chambers per slide). The edges were then sealed with paraffin and incubated at 37° C. for one hour. The number of plaques per chamber was counted with the aid of a dissecting microscope. Each spleen suspension was also assayed using non-conjugated SRBC as a control. The number of viable cells, in each spleen cell suspension, was determined. The number of pfc per 10^6 spleen cells was determined for each chamber and the mean of the triplicates calculated. The number of pfc for non-conjugated SRBC was subtracted from the number of pfc for conjugated SRBC to determine the number of peptide-specific pfc.
Two different tolerogens were constructed to determine if the orientation of the peptide on the PEG conjugate affects its ability to induce tolerance. The peptide was covalently bound to valency platform molecule 3 through its C-terminal end to make melittin conjugate 3. Groups (3/group) of mice primed with melittin were treated, i.p., with conjugates or with saline. Five days later all of the mice, including the non-treated control group, were boosted with […] of melittin. Six days later the mice were sacrificed, their spleens were harvested and the number of peptide specific pfc determined. As-illustrated in Table 8, both orientations were effective in reducing the number of peptide-specific pfc/10^6 spleen cells in mice primed and boosted with the parent protein Melittin.
Three different conjugates, each with a different number of peptides per PEG conjugate, were constructed to determine if the ratio of peptides to PEG molecule was important. Conjugate 1 had only two peptides per PEG conjugate. Another had four peptides per PEG conjugate (Conjugate 2). The third had eight peptides per PEG conjugate (Conjugate 5). Groups (3/group) of mice primed with melittin were treated, i.p., with the different conjugates or with saline. Five days later all of the nice, including the non-treated control group, were boosted with 5 μg of melittin. Six days later, the mice were sacrificed, their spleens were harvested and the number of peptide-specific pfc determined.

## Ile-Ser-Trp-Ile-Lys-Arg-Lys-Arg-Gln-Gln-Gly (ISWIKRKRQQG; printed: Ile-Ser-Trp-Ile-Lys-Arg-Lys-Arg-Gln-Gln-Gly) [Melittin Peptide #4]
[1]
  T cell proliferation (in words): showed T cell proliferation

## SWIKRKRQQG [Melittin Peptide #3]
[1]
  T cell proliferation (in words): showed T cell proliferation

## Cys-Ile-Ser-Trp-Ile-Lys-Arg-Lys-Arg-Gln-Gln-Gly (CISWIKRKRQQG; printed: Cys-Ile-Ser-Trp-Ile-Lys-Arg-Lys-Arg-Gln-Gln-Gly) [Melittin Peptide #5]
[1]
  T cell proliferation (in words): showed T cell proliferation

## N,N′-Bis-(3,5-bis-(iodoacetamido)benzoyl) derivative of α,ω-bis-(N-2-aminoethylcarbamoyl)polyethyleneglycol [Compound 3]
peptide-specific pfc; 250 μg/mouse i.p.
  % Reduction: 67.3%
  Peptide specific pfc per 10^6 spleen cells (Mean and S.D.): 957 (298) pfc per 10^6 spleen cells
peptide-specific pfc; 500 μg/mouse i.p.
  % Reduction: 83.3%
  Peptide specific pfc per 10^6 spleen cells (Mean and S.D.): 489 (one mouse) pfc per 10^6 spleen cells
peptide-specific pfc; 1000 μg/mouse i.p.
  % Reduction: 86.8%
peptide-specific pfc; 1000 μg/mouse i.p., boost 5 days later, spleens 6 days after boost
  Peptide specific pfc per 10^6 spleen cells (Mean and S.D.): 386 (85) pfc per 10^6 spleen cells

## CC[C@H](C)[C@H](NC(=O)CN)C(=O)NCC(=O)N[C@@H](C)C(=O)N[C@H](C(=O)N[C@@H](CC(C)C)C(=O)N[C@@H](CCCCN)C(=O)N[C@H](C(=O)N[C@@H](CC(C)C)C(=O)N[C@H](C(=O)N[C@H](C(=O)NCC(=O)N[C@@H](CC(C)C)C(=O)N1CCC[C@H]1C(=O)N[C@@H](C)C(=O)N[C@@H](CC(C)C)C(=O)N[C@H](C(=O)N[C@@H](CO)C(=O)N[C@@H](Cc1c[nH]c2ccccc12)C(=O)N[C@H](C(=O)N[C@@H](CCCCN)C(=O)N[C@@H](CCCNC(=N)N)C(=O)N[C@@H](CCCCN)C(=O)N[C@@H](CCCNC(=N)N)C(=O)N[C@@H](CCC(N)=O)C(=O)N[C@@H](CCC(N)=O)C(N)=O)[C@@H](C)CC)[C@@H](C)CC)[C@@H](C)O)[C@@H](C)O)C(C)C)C(C)C [Melittin, reference compound]
[1]
  T cell proliferation (in words): showed T cell proliferation

## IKRKRQQG [Melittin Peptide #1]
[1]
  T cell proliferation (in words): no significant T cell proliferation

## WIKRKRQQG [Melittin Peptide #2]
[1]
  T cell proliferation (in words): no significant T cell proliferation
